In patent US9029544B2, “Tricyclic pyridine derivatives, medicaments containing such compounds, their use and process for their preparation” (Boehringer Ingelheim International GmbH, priority 2010, dated 2015) one finds IC50 data, which are given here for 18 compounds.

In the assay the target is T1, Recombinant human CETP (Homo sapiens, UniProt P11597).
T1 construct: made in house; host or cells: CHO cells (secreted into conditioned medium)
T1 sequence (P11597 18-493): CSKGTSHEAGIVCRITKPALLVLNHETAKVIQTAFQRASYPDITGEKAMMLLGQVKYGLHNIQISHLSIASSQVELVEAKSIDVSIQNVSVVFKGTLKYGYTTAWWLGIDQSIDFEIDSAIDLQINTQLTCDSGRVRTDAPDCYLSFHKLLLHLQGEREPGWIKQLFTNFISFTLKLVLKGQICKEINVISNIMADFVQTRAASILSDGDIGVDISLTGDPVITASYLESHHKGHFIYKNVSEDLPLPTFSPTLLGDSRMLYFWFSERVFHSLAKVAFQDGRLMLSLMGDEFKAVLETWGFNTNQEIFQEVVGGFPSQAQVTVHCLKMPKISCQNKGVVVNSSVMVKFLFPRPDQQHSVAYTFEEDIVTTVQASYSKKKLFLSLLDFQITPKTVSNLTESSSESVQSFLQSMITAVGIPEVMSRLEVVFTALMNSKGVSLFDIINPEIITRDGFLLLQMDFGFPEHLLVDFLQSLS
The assay is described as follows: CETP in vitro assay (fluorometric assay, Roar Biomedical; cholesterol ester transfer from HDL to LDL). It is filed as biochemical. The note with it: recombinant human CETP from CHO cells; 3 hours at 37° C.; fluorescence 485/535 nm; compound concentrations between 1 nM and 30 μM; read-out: IC50 values for inhibition of CETP. On the procedure: CETP inhibitory activity of compounds of the present invention can be determined in a fluorometric assay purchased from Roar Biomedical, Inc. (New York, N.Y., USA). […] Recombinant human CETP was partially purified from medium conditioned by CETP expressing CHO cells. In a 384 well format 2.5 μl of compound solution in DMSO was combined with 2 μl of donor solution, 2 μl of acceptor solution and 0.8 μl of recombinant human CETP solution in a total volume of 100 μl with assay buffer and incubated for 3 hours at 37° C. The fluorescence intensity was measured at excitation wavelength of 485 nm and emission wavelength of 535 nm. IC50 values are calculated from dose effect curves from compound concentrations between 1 nM and 30 μM.

Structures are written as SMILES.

For the compound `CC1(C)C[C@H](O)c2c(nc(C3CCOCC3)c3c2C2(CCOCC2)O[C@@H]3c2ccc(C(F)(F)F)c(C#N)c2)[C@@H]1O` [4(9), 5-((3R,6R,9S)-6,9-dihydroxy-7,7-dimethyl-4-(tetrahydro-2H-pyran-4-yl)-2′,3′,5′,6,6′,7,8,9-octahydro-3H-spiro[furo[3,4-c]quinoline-1,4′-pyran]-3-yl)-2-(trifluoromethyl)benzonitrile], the IC50 amounted to 147 nM. For `COC(C)c1nc2c(c3c1[C@@H](c1ccc(C(F)(F)F)cc1)OC31CCOCC1)[C@@H](O)CC(C)(C)C2` (stereo partly drawn) [1(81), (3R,9S)-4-(1-methoxyethyl)-7,7-dimethyl-3-(4-(trifluoromethyl)phenyl)-2′,3′,5′,6,6′,7,8,9-octahydro-3H-spiro[furo[3,4-c]quinoline-1,4′-pyran]-9-ol], the IC50 worked out at 108 nM. The result for `O[C@H]1CC2(CCC2)Cc2nc(C3CCOCC3)c3c(c21)C1(CCOCC1)O[C@@H]3c1ccc(C(F)(F)F)nc1` [1(78), (3R,9S)-7,7-(propan-1,3-diyl)-4-(tetrahydro-2H-pyran-4-yl)-3-(6-(trifluoromethyl)pyridin-3-yl)-2′,3′,5′,6,6′,7,8,9-octahydro-3H-spiro[furo[3,4-c]quinoline-1,4′-pyran]-9-ol] reads 362 nM; that for `CC(C)c1nc2c(c3c1[C@@H](c1ccc(C(F)(F)F)nc1)OC31CCOCC1)[C@@H](O)CC(C)(C)[C@@H]2O` [5(7), (3R,6S,9S)-4-isopropyl-7,7-dimethyl-3-(6-(trifluoromethyl)pyridin-3-yl)-2′,3′,5′,6,6′,7,8,9-octahydro-3H-spiro[furo[3,4-c]quinoline-1,4′-pyran]-6,9-diol], 4120 nM; that for `CC(=O)O[C@H]1c2nc(C(C)C)c3c(c2[C@@H](O)CC1(C)C)C1(CCOCC1)O[C@@H]3c1ccc(C(F)(F)F)cc1` [1(48), (3R,6R,9S)-9-hydroxy-4-isopropyl-7,7-dimethyl-3-(4-(trifluoromethyl)phenyl)-2′,3′,5′,6,6′,7,8,9-octahydro-3H-spiro[furo[3,4-c]quinoline-1,4′-pyran]-6-yl acetate], 142 nM. To `CC(C)c1nc2c(c3c1[C@@H](c1ccc(S(F)(F)(F)(F)F)cc1)OC31CCOCC1)[C@@H](O)CC(C)(C)[C@H]2O` [4(7), (3R,6R,9S)-4-isopropyl-7,7-dimethyl-3-(4-(pentafluorosulfanyl)phenyl)-2′,3′,5′,6,6′,7,8,9-octahydro-3H-spiro[furo[3,4-c]quinoline-1,4′-pyran]-6,9-diol] belongs 12 nM; to `CC(C)c1nc2c(c3c1[C@@H](c1ccc(C(F)(F)F)cc1F)OC31CCOCC1)[C@@H](O)CC(C)(C)[C@@H]2O` [Example 6, (3S,6S,9S)-3-(2-fluoro-4-(trifluoromethyl)phenyl)-4-isopropyl-7,7-dimethyl-2′,3′,5′,6,6′,7,8,9-octahydro-3H-spiro[furo[3,4-c]quinoline-1,4′-pyran]-6,9-diol], 410 nM; to `CC(C)c1nc2c(c3c1[C@@H](c1ccc(C(C)(C)C)cc1)OC31CCCC1)[C@@H](O)CC(C)(C)[C@@H]2O` [4(4), (3′R,6′S,9′S)-3′-(4-tert-butylphenyl)-4′-isopropyl-7′,7′-dimethyl-6′,7′,8′,9′-tetrahydro-3′H-spiro[cyclopentane-1,1′-furo[3,4-c]quinoline]-6′,9′-diol], 207 nM. As to `CC(C)c1nc2c(c3c1[C@@H](c1ccc(C(F)(F)C(F)(F)F)cc1)OC31CCCC1)[C@@H](O)CC(C)(C)C2` [1(65), (3′R,9′S)-4′-isopropyl-7′,7′-dimethyl-3′-(4-(perfluoroethyl)phenyl)-6′,7′,8′,9′-tetrahydro-3′H-spiro[cyclopentane-1,1′-furo[3,4-c]quinolin]-9′-ol], the IC50 came to 83 nM. To `CC(C)c1nc2c(c3c1[C@@H](c1ccc(S(F)(F)(F)(F)F)cc1)OC31CCOCC1)[C@@H](O)CC(C)(C)C2` [1(68), (3R,9S)-4-isopropyl-7,7-dimethyl-3-(4-(pentafluorosulfanyl)phenyl)-2′,3′,5′,6,6′,7,8,9-octahydro-3H-spiro[furo[3,4-c]quinoline-1,4′-pyran]-9-ol] belongs 24 nM; to `CC(C)c1nc2c(c3c1[C@@H](c1ccc(C(F)(F)F)c(F)c1)OC31CCOCC1)[C@@H](O)CC(C)(C)[C@H]2O` [5(6), (3R,6R,9S)-3-(3-fluoro-4-(trifluoromethyl)phenyl)-4-isopropyl-7,7-dimethyl-2′,3′,5′,6,6′,7,8,9-octahydro-3H-spiro[furo[3,4-c]quinoline-1,4′-pyran]-6,9-diol], 13 nM. Turning to `CC(C)c1nc2c(c3c1[C@@H](c1ccc(C(F)(F)F)cc1F)OC31CCOCC1)[C@@H](O)CC1(CCC1)C2` [1(51), (3S,9S)-3-(2-fluoro-4-(trifluoromethyl)phenyl)-4-isopropyl-7,7-(propan-1,3-diyl)-2′,3′,5′,6,6′,7,8,9-octahydro-3H-spiro[furo[3,4-c]quinoline-1,4′-pyran]-9-ol], the 50% inhibitory concentration (IC50) stood at 13 nM. To `N#Cc1cc([C@H]2OC3(CCOCC3)c3c2c(C2CCOCC2)nc2c3[C@@H](O)CC3(CCC3)[C@H]2O)ccc1C(F)(F)F` [4(14), 5-((3R,6R,9S)-6,9-dihydroxy-7,7-(propan-1,3-diyl)-4-(tetrahydro-2H-pyran-4-yl)-2′,3′,5′,6,6′,7,8,9-octahydro-3H-spiro[furo[3,4-c]quinoline-1,4′-pyran]-3-yl)-2-(trifluoromethyl)benzonitrile] belongs 65 nM; to `CC(C)c1nc2c(c3c1[C@@H](c1ccc(C(F)(F)F)cc1)OC31CCOCC1)[C@@H](O)CC(C)(C)[C@H]2O` [4(2), (3R,6R,9S)-4-isopropyl-7,7-dimethyl-3-(4-(trifluoromethyl)phenyl)-2′,3′,5′,6,6′,7,8,9-octahydro-3H-spiro[furo[3,4-c]quinoline-1,4′-pyran]-6,9-diol], 25 nM. The result for `Cc1nc([C@H]2OC3(CCOCC3)c3c2c(C(C)C)nc2c3[C@@H](O)CC(C)(C)C2)sc1C(C)(C)C` [1(56), (3S,9S)-3-(5-tert-butyl-4-methylthiazol-2-yl)-4-isopropyl-7,7-dimethyl-2′,3′,5′,6,6′,7,8,9-octahydro-3H-spiro[furo[3,4-c]quinoline-1,4′-pyran]-9-ol] reads 470 nM; that for `CC1(C)Cc2nc(C3CCOCC3)c3c(c2[C@@H](O)C1)C1(CCOCC1)O[C@@H]3c1ccc(S(F)(F)(F)(F)F)cc1` [1(61), (3R,9S)-7,7-dimethyl-4-(tetrahydro-2H-pyran-4-yl)-3-(4-(pentafluorosulfanyl)phenyl)-2′,3′,5′,6,6′,7,8,9-octahydro-3H-spiro[furo[3,4-c]quinoline-1,4′-pyran]-9-ol], 66 nM. The result for `CC(C)c1nc2c(c3c1[C@@H](c1ccc(C(F)(F)F)cn1)OC31CCOCC1)[C@@H](O)CC1(CCC1)C2` [1(49), (3S,9S)-4-isopropyl-7,7-(propan-1,3-diyl)-3-(5-(trifluoromethyl)pyridin-2-yl)-2′,3′,5′,6,6′,7,8,9-octahydro-3H-spiro[furo[3,4-c]quinoline-1,4′-pyran]-9-ol] reads 37 nM; that for `C=C(C)c1ccc([C@H]2OC3(CCCC3)c3c2c(C(C)C)nc2c3[C@@H](O)CC(C)(C)C2)cc1` [1(60), (3′R,9′S)-4′-isopropyl-7′,7′-dimethyl-3′-(4-(prop-1-en-2-yl)phenyl)-6′,7′,8′,9′-tetrahydro-3′H-spiro[cyclopentane-1,1′-furo[3,4-c]quinolin]-9′-ol], 44 nM.
